Data set [1] addresses T1, Bile acid receptor (Homo sapiens) (UniProt Q96RI1).
T1 sequence (whole entry): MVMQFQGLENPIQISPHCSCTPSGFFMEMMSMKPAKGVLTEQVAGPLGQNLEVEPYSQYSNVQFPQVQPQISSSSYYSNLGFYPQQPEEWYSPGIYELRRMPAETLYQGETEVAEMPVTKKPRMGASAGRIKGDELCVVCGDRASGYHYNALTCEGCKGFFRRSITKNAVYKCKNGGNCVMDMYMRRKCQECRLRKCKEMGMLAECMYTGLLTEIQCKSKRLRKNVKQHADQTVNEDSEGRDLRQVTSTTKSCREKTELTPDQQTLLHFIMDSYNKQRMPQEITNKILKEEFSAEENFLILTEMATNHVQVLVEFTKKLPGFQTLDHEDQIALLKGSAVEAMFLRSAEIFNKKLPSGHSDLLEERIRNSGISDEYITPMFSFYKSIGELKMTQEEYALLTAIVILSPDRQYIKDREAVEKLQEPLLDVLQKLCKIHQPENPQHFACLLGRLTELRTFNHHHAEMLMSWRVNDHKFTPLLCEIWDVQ
Description: Activation of human FXR LBD expressed in HEK293T cells assessed as induction of receptor activation at 1 to 3 uM incubated for 12 to 14 hrs by luciferase reporter gene assay. The format is cell-based. The note with it: HEK-293T.

The target of data set [2] is T1, Bile acid receptor (Homo sapiens). Description: Activation of FXR in human HepG2 cells assessed as increase in SHP mRNA expression at 3 uM incubated for 8 hrs by quantitative real time PCR analysis. The format is cell-based. For orientation: Quantitative PCR measures a nucleic acid by following its amplification.
In data set [3] the target is T2, Peroxisome proliferator-activated receptor delta (Homo sapiens) (UniProt Q03181).
T2 sequence (whole entry): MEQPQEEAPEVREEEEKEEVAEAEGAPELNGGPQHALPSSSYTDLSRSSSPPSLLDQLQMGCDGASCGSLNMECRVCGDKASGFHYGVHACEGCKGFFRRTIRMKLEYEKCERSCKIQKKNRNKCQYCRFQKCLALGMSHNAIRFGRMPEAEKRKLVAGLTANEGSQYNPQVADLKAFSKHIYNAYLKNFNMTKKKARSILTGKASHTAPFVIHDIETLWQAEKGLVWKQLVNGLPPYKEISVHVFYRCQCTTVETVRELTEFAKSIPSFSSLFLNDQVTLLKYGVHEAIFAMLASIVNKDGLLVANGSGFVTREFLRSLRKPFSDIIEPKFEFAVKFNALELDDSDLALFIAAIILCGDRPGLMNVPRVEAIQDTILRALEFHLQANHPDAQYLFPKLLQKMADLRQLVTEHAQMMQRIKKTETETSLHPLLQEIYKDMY
The experiment in a line: Activation of human PPAR-delta LBD expressed in HEK293T cells assessed as induction of receptor activation at 1 to 3 uM incubated for 12 to 14 hrs by luciferase reporter gene assay. Type of data set: cell-based. The note with it: HEK-293T. On the technique in general: In a reporter assay the amount or activity of a reporter protein is the signal.

For a further data set, the system named is HepG2. The experiment in a line: Toxicity in human HepG2 cells assessed as reduction in cell viability up to 100 uM incubated for 48 hrs by WST1 assay. The note with it: hepg2, 48 h. The format is cell-based. A general note: Formazan colour is commonly taken as a measure of viable cells.
In data set [4] the target is T3, Peroxisome proliferator-activated receptor delta (Homo sapiens, UniProt Q03181).
T3 sequence (Q03181 whole entry): T2 sequence (whole entry)
Description: Activation of human PPAR-delta LBD expressed in HEK293T cells assessed as induction of receptor activation incubated for 12 to 14 hrs by luciferase reporter gene assay. Type of data set: cell-based, HEK-293T.

The target in data set [5] is T4, Peroxisome proliferator-activated receptor alpha (Homo sapiens) (UniProt Q07869).
T4 sequence (whole entry): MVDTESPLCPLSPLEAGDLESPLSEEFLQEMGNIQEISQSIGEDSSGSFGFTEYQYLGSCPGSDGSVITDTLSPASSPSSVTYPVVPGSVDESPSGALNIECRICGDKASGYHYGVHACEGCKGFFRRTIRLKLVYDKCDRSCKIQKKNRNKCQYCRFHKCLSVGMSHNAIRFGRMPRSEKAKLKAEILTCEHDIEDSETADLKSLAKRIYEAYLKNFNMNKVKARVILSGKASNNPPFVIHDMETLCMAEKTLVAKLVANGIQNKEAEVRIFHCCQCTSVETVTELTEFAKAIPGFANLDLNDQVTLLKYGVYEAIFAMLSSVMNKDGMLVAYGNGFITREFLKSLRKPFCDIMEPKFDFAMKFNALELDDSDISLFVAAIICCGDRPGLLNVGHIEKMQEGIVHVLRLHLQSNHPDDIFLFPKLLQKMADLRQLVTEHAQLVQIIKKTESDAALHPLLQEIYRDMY
The experiment in a line: Activation of human PPAR-alpha LBD expressed in HEK293T cells assessed as induction of receptor activation at 10 uM incubated for 12 to 14 hrs by luciferase reporter gene assay. The format is cell-based. The note with it: HEK-293T.

The target of data set [6] is T5, Retinoic acid receptor RXR-alpha (Homo sapiens) (UniProt P19793).
T5 sequence (whole entry): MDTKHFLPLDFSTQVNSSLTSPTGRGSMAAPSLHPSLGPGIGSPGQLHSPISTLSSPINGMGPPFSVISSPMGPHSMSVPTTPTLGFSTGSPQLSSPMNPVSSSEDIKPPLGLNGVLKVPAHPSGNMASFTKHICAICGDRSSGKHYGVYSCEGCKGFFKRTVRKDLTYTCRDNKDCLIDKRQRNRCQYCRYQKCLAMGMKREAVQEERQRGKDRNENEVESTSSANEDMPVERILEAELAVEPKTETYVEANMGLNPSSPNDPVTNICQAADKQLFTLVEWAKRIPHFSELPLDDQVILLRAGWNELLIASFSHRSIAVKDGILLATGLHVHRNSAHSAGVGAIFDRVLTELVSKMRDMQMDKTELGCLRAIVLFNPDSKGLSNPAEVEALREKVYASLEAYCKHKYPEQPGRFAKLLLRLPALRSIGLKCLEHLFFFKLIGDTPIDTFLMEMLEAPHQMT
The experiment in a line: Activation of human RXR-alphaLBD expressed in HEK293T cells assessed as induction of receptor activation at 10 uM incubated for 12 to 14 hrs by luciferase reporter gene assay. The format is cell-based. The note with it: HEK-293T.

The target of data set [7] is T6, Oxysterols receptor LXR-alpha (Homo sapiens) (UniProt Q13133).
T6 sequence (whole entry): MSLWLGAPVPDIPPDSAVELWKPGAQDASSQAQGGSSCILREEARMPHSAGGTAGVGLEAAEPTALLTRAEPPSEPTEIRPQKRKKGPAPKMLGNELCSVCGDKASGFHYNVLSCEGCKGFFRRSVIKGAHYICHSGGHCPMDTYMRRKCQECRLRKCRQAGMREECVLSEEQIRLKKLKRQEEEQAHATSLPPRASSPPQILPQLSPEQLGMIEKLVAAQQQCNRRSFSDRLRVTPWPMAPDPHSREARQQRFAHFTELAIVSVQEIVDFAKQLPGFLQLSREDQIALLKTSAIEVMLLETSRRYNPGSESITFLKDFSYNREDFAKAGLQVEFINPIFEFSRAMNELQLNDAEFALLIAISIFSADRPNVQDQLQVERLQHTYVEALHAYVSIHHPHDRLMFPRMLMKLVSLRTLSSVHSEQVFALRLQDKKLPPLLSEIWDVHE
Description: Activation of human LXR-alpha LBD expressed in HEK293T cells assessed as induction of receptor activation at 10 uM incubated for 12 to 14 hrs by luciferase reporter gene assay. The note with it: HEK-293T. The format is cell-based.

The target of data set [8] is T1, Bile acid receptor (Homo sapiens). Description: Activation of FXR in human HepG2 cells assessed as decrease in CYP7A1 mRNA expression at 3 uM incubated for 8 hrs by quantitative real time PCR analysis. Type of data set: cell-based.

Activity calls are given as the source filed them. The calls are words filed in the database; no cut-off is given here.

The source of these data is ChEMBL document CHEMBL4627415, “Design and Structural Optimization of Dual FXR/PPARδ Activators” (J Med Chem, 2020).

For orientation: EC50 means the concentration at which the effect is half-maximal.

Consider `CC(C)c1onc(-c2c(Cl)cccc2Cl)c1COc1ccc(CNc2ccc(CC(=O)O)cc2)c(Cl)c1`, for which the outcome in [1], in [2], in data set [3] and in data set [8] was Active. The Activity entry with HepG2 is “Non-Toxic”. The EC50 in data set [4] turned out to be 1500 nM. Further, the outcome in [5], in data set [6] and in data set [7] was inactive.
